Test results: patent publication US5202315A, “Cephalosporin compounds” (Lucky, Ltd., priority 1989, dated 1993)
≈ marks a conversion by molar mass, not a printed value.

Columns and labels:
Experiment in all cases: Antibacterial activity, MIC
Assay type in all cases: cell-based
[1] = test system: Acinetobacter calcoaceticus ATCC 15473; conditions: ATCC15473, ATCC 15473, agar two-fold dilution, 37° C., 20 hours, read-out: MIC
Summary of the method: (§1)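 Values reflect agar dilution testing: Mueller-Hinton medium, two-fold compound series, 2 μl inoculum of 10^7 CFU/ml, 20 h incubation at 37 °C.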

[2] = test system: Bacillus cereus ATCC 11778; conditions: ATCC11778, ATCC 11778, agar two-fold dilution, 37° C., 20 hours, read-out: MIC
Summary of the method: as §1

[3] = test system: Bacillus megaterium ATCC 9885; conditions: Priestia megaterium, ATCC9885; ATCC 9885; agar two-fold dilution, 37° C., 20 hours; read-out: MIC
Summary of the method: as §1

[4] = test system: Citrobacter freundii ATCC 8090; conditions: ATCC8090, ATCC 8090, agar two-fold dilution, 37° C., 20 hours, read-out: MIC
Summary of the method: as §1

[5] = test system: Enterobacter aerogenes ATCC 29751; conditions: Klebsiella aerogenes, ATCC29751; ATCC 29751; agar two-fold dilution, 37° C., 20 hours; read-out: MIC
Summary of the method: as §1

[6] = test system: Enterobacter cloacae ATCC 27508; conditions: ATCC27508, ATCC 27508, agar two-fold dilution, 37° C., 20 hours, read-out: MIC
Summary of the method: as §1

[7] = test system: Escherichia coli ATCC 10536; conditions: ATCC10536, agar two-fold dilution, 37° C., 20 hours
Summary of the method: as §1

[8] = test system: Escherichia coli ATCC 25922; conditions: ATCC25922, agar two-fold dilution, 37° C., 20 hours
Summary of the method: as §1

[9] = test system: Klebsiella pneumoniae ATCC 10031; conditions: ATCC10031, ATCC 10031, agar two-fold dilution, 37° C., 20 hours, read-out: MIC
Summary of the method: as §1

[10] = test system: Micrococcus luteus ATCC 9341; conditions: ATCC9341, ATCC 9341, agar two-fold dilution, 37° C., 20 hours, read-out: MIC
Summary of the method: as §1

[11] = test system: Morganella morganii ATCC 8076h; conditions: ATCC8076H, agar two-fold dilution, 37° C., 20 hours
Summary of the method: as §1

[12] = test system: Proteus mirabilis ATCC 25933; conditions: ATCC25933, ATCC 25933, agar two-fold dilution, 37° C., 20 hours, read-out: MIC
Summary of the method: as §1

[13] = test system: Proteus vulgaris ATCC 6059; conditions: ATCC6059, ATCC 6059, agar two-fold dilution, 37° C., 20 hours, read-out: MIC
Summary of the method: as §1

[14] = test system: Providencia rettgeri ATCC 9250; conditions: ATCC9250, agar two-fold dilution, 37° C., 20 hours
Summary of the method: as §1

[15] = test system: Pseudomonas aeruginosa ATCC 10145; conditions: ATCC10145, ATCC 10145, agar two-fold dilution, 37° C., 20 hours, read-out: MIC
Summary of the method: as §1

[16] = test system: Pseudomonas aeruginosa ATCC 25619; conditions: ATCC25619, ATCC 25619, agar two-fold dilution, 37° C., 20 hours, read-out: MIC
Summary of the method: as §1

[17] = test system: Pseudomonas aeruginosa ATCC 27853; conditions: ATCC27853, ATCC 27853, agar two-fold dilution, 37° C., 20 hours, read-out: MIC
Summary of the method: as §1

[18] = test system: Salmonella typhimurium ATCC 14028; conditions: Salmonella enterica; ATCC 14028; agar two-fold dilution, 37° C., 20 hours; read-out: MIC
Summary of the method: as §1

[19] = test system: Serratia marcescens ATCC 27117; conditions: ATCC27117, ATCC 27117, agar two-fold dilution, 37° C., 20 hours, read-out: MIC
Summary of the method: as §1

[20] = test system: Shigella flexneri ATCC 11836; conditions: ATCC11836, agar two-fold dilution, 37° C., 20 hours
Summary of the method: as §1

[21] = test system: Shigella sonnei ATCC 11060; conditions: ATCC11060, ATCC 11060, agar two-fold dilution, 37° C., 20 hours, read-out: MIC
Summary of the method: as §1

[22] = test system: Staphylococcus aureus ATCC 10537; conditions: ATCC10537, ATCC 10537, agar two-fold dilution, 37° C., 20 hours, read-out: MIC
Summary of the method: as §1

[23] = test system: Staphylococcus aureus ATCC 6538p; conditions: ATCC6538P, ATCC 6538p, agar two-fold dilution, 37° C., 20 hours, read-out: MIC
Summary of the method: as §1

[24] = test system: Staphylococcus epidermidis ATCC 12228; conditions: ATCC12228, ATCC 12228, agar two-fold dilution, 37° C., 20 hours, read-out: MIC
Summary of the method: as §1

[25] = test system: Streptococcus faecalis ATCC 29212; conditions: Enterococcus faecalis, ATCC29212; ATCC 29212; agar two-fold dilution, 37° C., 20 hours; read-out: MIC
Summary of the method: as §1

SMILES	MIC [1]	MIC [2]	MIC [3]	MIC [4]	MIC [5]	MIC [6]	MIC [7]	MIC [8]	MIC [9]	MIC [10]	MIC [11]	MIC [12]	MIC [13]	MIC [14]	MIC [15]	MIC [16]	MIC [17]	MIC [18]	MIC [19]	MIC [20]	further results
CCO/N=C(\C(=O)NC1C(=O)N2C(C(=O)[O-])=C(CSc3nc(N)cc(N)[n+]3-c3ccc(Cl)cc3)CSC12)c1csc(N)n1 (stereo not shown) [Compound I-40]	16 µg/mL (≈ 24.2 µM)	16 µg/mL (≈ 24.2 µM)	0.063 µg/mL (≈ 0.0951 µM)	1 µg/mL (≈ 1.51 µM)	2 µg/mL (≈ 3.02 µM)	0.13 µg/mL (≈ 0.196 µM)	0.5 µg/mL (≈ 0.755 µM)	0.5 µg/mL (≈ 0.755 µM)	0.031 µg/mL (≈ 0.0468 µM)	0.016 µg/mL (≈ 0.0242 µM)	0.016 µg/mL (≈ 0.0242 µM)	0.5 µg/mL (≈ 0.755 µM)	0.5 µg/mL (≈ 0.755 µM)	≤ 0.008 µg/mL	16 µg/mL (≈ 24.2 µM)	2 µg/mL (≈ 3.02 µM)	8 µg/mL (≈ 12.1 µM)	2 µg/mL (≈ 3.02 µM)	1 µg/mL (≈ 1.51 µM)	0.25 µg/mL (≈ 0.378 µM)	MIC [21]: 0.5 µg/mL (≈ 0.755 µM); MIC [22]: 0.25 µg/mL (≈ 0.378 µM); MIC [23]: 0.5 µg/mL (≈ 0.755 µM); MIC [24]: 0.13 µg/mL (≈ 0.196 µM); MIC [25]: 32 µg/mL (≈ 48.3 µM)
C=CCO/N=C(\C(=O)NC1C(=O)N2C(C(=O)[O-])=C(CSc3nc(N)cc(N)[n+]3CC)CSC12)c1csc(N)n1 (stereo not shown) [Compound I-50]	4 µg/mL (≈ 6.76 µM)	8 µg/mL (≈ 13.5 µM)	0.13 µg/mL (≈ 0.22 µM)	0.13 µg/mL (≈ 0.22 µM)	0.5 µg/mL (≈ 0.845 µM)	0.016 µg/mL (≈ 0.027 µM)	0.13 µg/mL (≈ 0.22 µM)	0.13 µg/mL (≈ 0.22 µM)	≤ 0.008 µg/mL	≤ 0.008 µg/mL	≤ 0.008 µg/mL	0.25 µg/mL (≈ 0.423 µM)	0.25 µg/mL (≈ 0.423 µM)	≤ 0.008 µg/mL	4 µg/mL (≈ 6.76 µM)	1 µg/mL (≈ 1.69 µM)	4 µg/mL (≈ 6.76 µM)	0.5 µg/mL (≈ 0.845 µM)	0.25 µg/mL (≈ 0.423 µM)	0.031 µg/mL (≈ 0.0524 µM)	MIC [21]: 0.13 µg/mL (≈ 0.22 µM); MIC [22]: 0.13 µg/mL (≈ 0.22 µM); MIC [23]: 0.13 µg/mL (≈ 0.22 µM); MIC [24]: 0.063 µg/mL (≈ 0.106 µM); MIC [25]: 8 µg/mL (≈ 13.5 µM)
C[n+]1c(N)cc(N)nc1SCC1=C(C(=O)[O-])N2C(=O)C(NC(=O)/C(=N\OC(C)(C)C(=O)O)c3nsc(N)n3)C2SC1 (stereo not shown) [Compound I-26]	4 µg/mL (≈ 6.4 µM)	> 128 µg/mL	1 µg/mL (≈ 1.6 µM)	0.13 µg/mL (≈ 0.208 µM)	1 µg/mL (≈ 1.6 µM)	0.031 µg/mL (≈ 0.0496 µM)	0.13 µg/mL (≈ 0.208 µM)	0.13 µg/mL (≈ 0.208 µM)	0.13 µg/mL (≈ 0.208 µM)	1 µg/mL (≈ 1.6 µM)	≤ 0.008 µg/mL	0.13 µg/mL (≈ 0.208 µM)	0.13 µg/mL (≈ 0.208 µM)	≤ 0.008 µg/mL	2 µg/mL (≈ 3.2 µM)	2 µg/mL (≈ 3.2 µM)	2 µg/mL (≈ 3.2 µM)	0.5 µg/mL (≈ 0.8 µM)	0.25 µg/mL (≈ 0.4 µM)	0.063 µg/mL (≈ 0.101 µM)	MIC [21]: 0.13 µg/mL (≈ 0.208 µM); MIC [22]: 8 µg/mL (≈ 12.8 µM); MIC [23]: 8 µg/mL (≈ 12.8 µM); MIC [24]: 4 µg/mL (≈ 6.4 µM); MIC [25]: > 128 µg/mL
C=CC[n+]1c(N)cc(N)nc1SCC1=C(C(=O)[O-])N2C(=O)C(NC(=O)/C(=N\OCC)c3nsc(N)n3)C2SC1 (stereo not shown) [Compound I-23]	8 µg/mL (≈ 13.5 µM)	16 µg/mL (≈ 27 µM)	0.25 µg/mL (≈ 0.422 µM)	0.25 µg/mL (≈ 0.422 µM)	2 µg/mL (≈ 3.37 µM)	0.031 µg/mL (≈ 0.0523 µM)	0.5 µg/mL (≈ 0.844 µM)	0.25 µg/mL (≈ 0.422 µM)	0.031 µg/mL (≈ 0.0523 µM)	0.016 µg/mL (≈ 0.027 µM)	0.031 µg/mL (≈ 0.0523 µM)	2 µg/mL (≈ 3.37 µM)	1 µg/mL (≈ 1.69 µM)	≤ 0.008 µg/mL	16 µg/mL (≈ 27 µM)	2 µg/mL (≈ 3.37 µM)	8 µg/mL (≈ 13.5 µM)	2 µg/mL (≈ 3.37 µM)	1 µg/mL (≈ 1.69 µM)	0.13 µg/mL (≈ 0.219 µM)	MIC [21]: 0.5 µg/mL (≈ 0.844 µM); MIC [22]: 1 µg/mL (≈ 1.69 µM); MIC [23]: 1 µg/mL (≈ 1.69 µM); MIC [24]: 0.25 µg/mL (≈ 0.422 µM); MIC [25]: 32 µg/mL (≈ 54 µM)
